Test results reported in paper PMC11788587, “Validating Low‐Dose Iohexol as a Marker for Glomerular Filtration Rate by In Vitro and In Vivo Studies” (Clinical and Translational Science, 2025).

Tests used:
[1] = biological target: T1, hOCT1 (Homo sapiens, UniProt O15245); assay: Inhibition of hOCT1-mediated metformin uptake, stably transfected 293 cells; assay type: cell-based; conditions: substrate 50 µM metformin, median (95% CI)
T1 construct: expressed in transfected cells; host or cells: HEK-293 (293) cells, pEBTetD plasmid, doxycycline-induced
T1 sequence (O15245 1-554): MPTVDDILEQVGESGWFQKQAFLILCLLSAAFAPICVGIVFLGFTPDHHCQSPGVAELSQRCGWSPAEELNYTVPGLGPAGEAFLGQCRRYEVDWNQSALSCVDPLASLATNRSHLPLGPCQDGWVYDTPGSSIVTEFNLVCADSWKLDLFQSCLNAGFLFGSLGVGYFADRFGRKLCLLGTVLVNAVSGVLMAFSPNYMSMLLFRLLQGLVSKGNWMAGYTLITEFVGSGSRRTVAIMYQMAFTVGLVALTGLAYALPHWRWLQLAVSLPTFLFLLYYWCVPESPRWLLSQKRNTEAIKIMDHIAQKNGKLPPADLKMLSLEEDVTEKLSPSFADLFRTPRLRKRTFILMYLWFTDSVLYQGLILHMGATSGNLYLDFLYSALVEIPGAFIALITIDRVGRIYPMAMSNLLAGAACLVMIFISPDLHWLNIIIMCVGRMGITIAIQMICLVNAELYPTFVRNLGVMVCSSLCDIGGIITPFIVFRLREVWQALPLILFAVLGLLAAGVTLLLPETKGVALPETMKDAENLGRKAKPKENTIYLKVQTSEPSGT
From the text: (§1) We characterized the inhibitory potential of iohexol on major drug transporters recommended by regulatory agencies, which were previously assessed in a clinical transporter phenotyping cocktail study. These transporters include hOAT1, hOAT3, hOCT1, hOCT2, hMATE1, hMATE2K, human organic anion transporter polypeptides (hOATP)1B1, hOATP1B3, and human multidrug resistance protein (hMDR)1. Additionally, we investigated whether iohexol is a substrate for any of the renal transporters among these, including hOAT1/3, hOCT1/2, and hMATE1/2K. Cell‐based uptake assays were used to assess the activities of hOAT1/3, hOCT1/2, hMATE1/2K, and hOATP1B1/1B3. Inside‐out membrane vesicle uptake assays were used to evaluate the activity of hMDR1.
(§2) To determine the maximal inhibitory potential of iohexol, intracellular accumulation of a standard substrate was measured with and without the clinically relevant highest concentrations of iohexol. Control inhibitors were tested in each experiment.
In all subsequent in vitro studies, control experiments were conducted to validate the results. These included positive controls for substrates and inhibitors, as well as cells either without transporter expression or transfected with an empty vector, and control vesicles. Each condition, including cells or vesicles with the transporter and their respective controls, was analyzed in at least three replicates. For detailed information on materials, methods, and data analysis techniques used, refer to the Supporting Information. […]
R version 4.2.1 (R Foundation for Statistical Computing, Vienna, Austria) was used for statistical evaluations and data visualization. The data analysis approach for the in vitro study was detailed by Hsin CH et al..^1 In brief, for transport assays, the initial uptake rate was calculated by normalizing the substrate concentration to both the protein concentration and the incubation time for each dish or well. The transporter-mediated uptake rate (net uptake) was determined by performing an element-wise subtraction of uptake rates from different conditions. […]

[2] = biological target: T2, hMDR1 (Homo sapiens, UniProt P08183); assay: Inhibition of hMDR1-mediated 3H-NMQ uptake, inside-out membrane vesicles; assay type: biochemical; conditions: substrate 0.01 µM 3H-NMQ, median (95% CI)
T2 construct: purchased Pharm Tox, Netherlands; host or cells: HEK293 cells (membrane vesicles)
From the text: as §1, §2
In all subsequent in vitro studies, control experiments were conducted to validate the results. […] Each condition, including cells or vesicles with the transporter and their respective controls, was analyzed in at least three replicates. […]
R version 4.2.1 (R Foundation for Statistical Computing, Vienna, Austria) was used for statistical evaluations and data visualization. The data analysis approach for the in vitro study was detailed by Hsin CH et al..^1 In brief, for transport assays, the initial uptake rate was calculated by normalizing the substrate concentration to both the protein concentration and the incubation time for each dish or well. The transporter-mediated uptake rate (net uptake) was determined by performing an element-wise subtraction of uptake rates from different conditions. […] Net uptake rates were determined by subtracting the uptake rate of the control cells or vesicles from that of the transporter-expressing cells or vesicles for each pair. […]

T2 sequence (P08183 whole entry): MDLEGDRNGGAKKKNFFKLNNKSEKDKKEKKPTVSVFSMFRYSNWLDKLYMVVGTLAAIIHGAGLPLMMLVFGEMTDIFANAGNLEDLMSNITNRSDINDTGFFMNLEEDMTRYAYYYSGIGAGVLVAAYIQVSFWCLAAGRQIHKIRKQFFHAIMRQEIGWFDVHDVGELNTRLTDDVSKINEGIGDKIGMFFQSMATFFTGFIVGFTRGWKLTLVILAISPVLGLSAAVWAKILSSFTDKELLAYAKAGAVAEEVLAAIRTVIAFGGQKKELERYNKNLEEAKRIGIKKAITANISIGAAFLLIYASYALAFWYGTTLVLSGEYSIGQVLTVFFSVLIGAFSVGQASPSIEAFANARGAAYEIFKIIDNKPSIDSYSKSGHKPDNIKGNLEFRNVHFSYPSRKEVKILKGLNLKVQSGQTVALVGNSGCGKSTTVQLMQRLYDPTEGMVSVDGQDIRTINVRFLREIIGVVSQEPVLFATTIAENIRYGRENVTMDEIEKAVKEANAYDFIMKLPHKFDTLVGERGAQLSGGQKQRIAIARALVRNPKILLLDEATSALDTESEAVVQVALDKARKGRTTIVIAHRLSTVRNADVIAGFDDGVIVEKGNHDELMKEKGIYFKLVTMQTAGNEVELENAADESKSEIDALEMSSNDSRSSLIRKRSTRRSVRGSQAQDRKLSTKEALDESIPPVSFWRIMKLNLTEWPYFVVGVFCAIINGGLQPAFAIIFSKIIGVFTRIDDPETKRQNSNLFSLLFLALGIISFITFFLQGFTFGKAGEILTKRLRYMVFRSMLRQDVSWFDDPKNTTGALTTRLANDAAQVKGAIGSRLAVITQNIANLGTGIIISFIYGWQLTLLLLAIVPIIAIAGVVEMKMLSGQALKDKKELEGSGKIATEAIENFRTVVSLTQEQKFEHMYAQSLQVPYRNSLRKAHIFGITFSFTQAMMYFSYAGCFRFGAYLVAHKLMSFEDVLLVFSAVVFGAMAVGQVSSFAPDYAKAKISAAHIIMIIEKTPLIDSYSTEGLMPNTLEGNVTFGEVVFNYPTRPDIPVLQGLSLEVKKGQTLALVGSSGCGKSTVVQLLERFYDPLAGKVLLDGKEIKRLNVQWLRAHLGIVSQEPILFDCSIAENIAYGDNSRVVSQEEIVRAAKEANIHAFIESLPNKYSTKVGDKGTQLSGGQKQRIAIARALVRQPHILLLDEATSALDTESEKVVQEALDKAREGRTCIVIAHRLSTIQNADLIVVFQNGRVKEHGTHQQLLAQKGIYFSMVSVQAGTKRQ

For `CC(=O)N(CC(O)CO)c1c(I)c(C(=O)NCC(O)CO)c(I)c(C(=O)NCC(O)CO)c1I` (stereo not drawn) [iohexol], which “Inhibitory effect (% reduction of specific activity)” value ([1]; 20 mM iohexol) is on record?
The value was “no notable inhibitory effects”.

What about the inhibition at 1000 µM ([1]; HEK293, 1 mM iohexol, read-out: Inhibitory effect (% reduction of specific activity)) of the same molecule?
Its inhibition at 1000 µM is -9.8%.

What about the inhibition at 20000 µM ([1]; HEK293, 20 mM iohexol, read-out: Inhibitory effect (% reduction of specific activity)) of the same molecule?
Its inhibition at 20000 µM is -22%.

And the “Inhibitory effect (% reduction of specific activity)” value ([2]; 20 mM iohexol)?
The value was under 30%.

And the inhibition at 1 min, 2 mM ([2]; human, probe 3H-NMQ (N-methyl-quinidine), 0.01 µM, 2 mM iohexol, read-out: Inhibitory effect (% reduction of specific activity))?
Its inhibition at 1 min, 2 mM is -4.9%.

What about the inhibition at 1 min, 20 mM ([2]; human, probe 3H-NMQ (N-methyl-quinidine), 0.01 µM, 20 mM iohexol, read-out: Inhibitory effect (% reduction of specific activity)) of the same molecule?
The inhibition at 1 min, 20 mM was 21%.
